Experimental data taken from patent US8993569B2, “Diarylpyridazinone derivatives, preparation thereof, and use thereof for the treatment of humans” (Pierre Fabre Medicament, priority 2010, dated 2015).

The molecules below were run against T1, human isoform of the Kv1.5 channels (HEK293 cells, stably transfected) (Homo sapiens, UniProt P22460) (assay: FLIPR thallium ion flux assay on Kv1.5 potassium channel (FLIPR Potassium Ion Channel Assay Kit)). Conditions: 10 μM compound, 15 min at 37° C; HEK293-hKv1.5; thallium fluorescence 30 secs after depolarising solution; normalised with 10 μM DPO.
T1 construct: expressed in transfected cells; host or cells: HEK293
Type: cell-based
Protocol: The pharmacological assessment of the compounds on the Kv1.5 potassium channel was performed in a 96-well plate in FLIPR technology by thallium ion measurement.
The HEK293 cells, stably transfected with the human isoform of the Kv1.5 channels, are seeded 24 h before experimentation in 96-well plates (15 10^6 cells/plate, 200 μl/well) polylysinated in the following culture medium: DMEM, 10% SVF, Penicillin/Streptomycin, G418 as the selection antibiotic.
The experimentation in FLIPR is performed using the “FLIPR Potassium Ion Channel Assay Kit) as indicated by the manufacturer (Molecular Devices).
Briefly, the culture medium is replaced by the solution containing the thallium marker for 90 min at 37° C. Following this step, the compounds to be tested are added to a final concentration of 10 μM in the well for 15 min at 37° C. The basic fluorescence is subsequently read for 60 secs. The addition of a depolarising medium (20 mM of potassium and 3 mM of final thallium), opens the potassium channels and induces an increase in the fluorescence of the fluorophore thallium corresponding to an influx of thallium ions through the hKv1.5 channels. The measurement is performed 30 secs after injection of the depolarising solution. Application of 10 μM of DPO (Tocris, Kv1.5 channel blocker) allows normalisation of the fluorescence.

T1 sequence (P22460 whole entry, canonical isoform): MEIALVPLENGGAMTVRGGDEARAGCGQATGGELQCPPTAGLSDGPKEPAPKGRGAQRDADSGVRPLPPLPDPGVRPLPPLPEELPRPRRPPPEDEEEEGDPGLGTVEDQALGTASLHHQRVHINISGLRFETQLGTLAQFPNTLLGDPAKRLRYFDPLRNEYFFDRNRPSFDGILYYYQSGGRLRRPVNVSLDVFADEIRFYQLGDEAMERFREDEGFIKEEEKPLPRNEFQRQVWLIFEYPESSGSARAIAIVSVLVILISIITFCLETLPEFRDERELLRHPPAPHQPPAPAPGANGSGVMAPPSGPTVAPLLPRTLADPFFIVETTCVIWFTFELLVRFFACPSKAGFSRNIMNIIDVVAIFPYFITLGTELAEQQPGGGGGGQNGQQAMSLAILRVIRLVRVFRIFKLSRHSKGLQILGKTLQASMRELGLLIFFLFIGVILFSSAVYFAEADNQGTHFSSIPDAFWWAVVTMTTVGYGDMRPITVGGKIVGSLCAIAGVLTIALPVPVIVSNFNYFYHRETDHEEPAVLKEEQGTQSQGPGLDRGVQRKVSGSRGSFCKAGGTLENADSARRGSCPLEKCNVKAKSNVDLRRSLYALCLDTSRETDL

Compound | inhibition at 10 µM [%]
CC1=C(C(=O)N2CCC[C@H]2c2ccc(F)cc2)[C@@H](c2ccc(Cl)c(Cl)c2)n2nccc2N1 [BMS394136, reference compound] | 99.6
CC(c1ccccc1)n1ncc(-c2ccc(O)cc2)c(-c2ccc(O)cc2)c1=O (stereo not shown) [Example 1, 4,5-Bis-(4-hydroxy-phenyl)-2-(1-phenyl-ethyl)-2H-pyridazin-3-one] | 100
C[C@@H](c1ccccc1)n1ncc(-c2ccc(O)cc2)c(-c2ccc(O)cc2)c1=O [Example 2, 4,5-Bis-(4-hydroxy-phenyl)-2-((S)-1-phenyl-ethyl)-2H-pyridazin-3-one] | 100
C[C@H](c1ccccc1)n1ncc(-c2ccc(O)cc2)c(-c2ccc(O)cc2)c1=O [Example 3, 4,5-Bis-(4-hydroxy-phenyl)-2-((R)-1-phenyl-ethyl)-2H-pyridazin-3-one] | 43.3
COc1ccc(-c2cnn(C(C)c3ccccc3)c(=O)c2-c2ccc(OC)cc2)cc1 (stereo not shown) [Example 6, 4,5-Bis-(4-methoxy-phenyl)-2-(1-phenyl-ethyl)-2H-pyridazin-3-one] | 94.2
Cc1ccc(S(=O)(=O)Nc2cccc(-c3cnn(C(C)c4ccccc4)c(=O)c3-c3cccc(NS(=O)(=O)c4ccc(C)cc4)c3)c2)cc1 (stereo not shown) [Example 7, N,N′-(3,3′-(6-oxo-1-(1-phenylethyl)-1,6-dihydropyridazine-4,5-diyl)bis(3,1-phenylene))bis(4-methylbenzenesulfonamide)] | 54.9

Further lines, results first:

inhibition at 10 µM [%] | Compound
54.9 | CC(c1ccccc1)n1ncc(-c2ccccc2C#N)c(-c2ccccc2C#N)c1=O (stereo not shown) [Example 4, 2,2′-(6-oxo-1-(1-phenylethyl)-1,6-dihydropyridazine-4,5-diyl)dibenzonitrile]
93.6 | CC(c1ccccc1)n1ncc(-c2cccc(C#N)c2)c(-c2cccc(C#N)c2)c1=O (stereo not shown) [Example 5, 3,3′-(6-oxo-1-(1-phenylethyl)-1,6-dihydropyridazine-4,5-diyl) dibenzonitrile]
88 | COc1ccc(-c2c(-c3cccc(C#N)c3)cnn(C(C)c3ccccc3)c2=O)cc1 (stereo not shown) [Example 8, 3-(5-(4-methoxyphenyl)-6-oxo-1-(1-phenylethyl)-1,6-dihydropyridazin-4-yl)benzonitrile]
60.1 | COc1ccc(-c2c(-c3ccccc3C#N)cnn(C(C)c3ccccc3)c2=O)cc1 (stereo not shown) [Example 9, 2-[5-(4-Methoxy-phenyl)-6-oxo-1-(1-phenyl-ethyl)-1,6-dihydro-pyridazin-4-yl]-benzonitrile]
